The text below walks through data of ChEMBL document CHEMBL4811301, “Synthesis and biological evaluation of 3-styrylchromone derivatives as selective monoamine oxidase B inhibitors” (Bioorg Med Chem, 2021).

Experiment [1] concerns the target T1, Amine oxidase [flavin-containing] A (Homo sapiens, UniProt P21397).
T1 sequence (P21397 whole entry): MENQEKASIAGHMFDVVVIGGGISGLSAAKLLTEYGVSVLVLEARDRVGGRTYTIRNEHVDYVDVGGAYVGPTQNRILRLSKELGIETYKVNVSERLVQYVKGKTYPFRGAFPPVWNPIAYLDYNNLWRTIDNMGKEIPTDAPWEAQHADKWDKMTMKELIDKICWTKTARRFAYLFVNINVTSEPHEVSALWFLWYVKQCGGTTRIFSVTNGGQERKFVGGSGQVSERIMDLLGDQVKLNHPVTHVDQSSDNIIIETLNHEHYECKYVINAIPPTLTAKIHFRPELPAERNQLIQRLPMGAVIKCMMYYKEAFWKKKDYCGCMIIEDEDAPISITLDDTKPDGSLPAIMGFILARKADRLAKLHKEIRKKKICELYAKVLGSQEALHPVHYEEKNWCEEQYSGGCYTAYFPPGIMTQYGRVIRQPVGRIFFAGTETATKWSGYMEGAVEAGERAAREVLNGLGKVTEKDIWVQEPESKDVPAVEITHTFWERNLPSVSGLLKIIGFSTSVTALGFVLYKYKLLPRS
The experiment is described as follows: Inhibition of human recombinant MAO-A […] as incubated for 20 mins measuring increase in emission signal at 310 nm multimode plate reader assay.

Experiment [2] concerns the target T2, Amine oxidase [flavin-containing] B (Homo sapiens, UniProt P27338).
T2 sequence (P27338 whole entry): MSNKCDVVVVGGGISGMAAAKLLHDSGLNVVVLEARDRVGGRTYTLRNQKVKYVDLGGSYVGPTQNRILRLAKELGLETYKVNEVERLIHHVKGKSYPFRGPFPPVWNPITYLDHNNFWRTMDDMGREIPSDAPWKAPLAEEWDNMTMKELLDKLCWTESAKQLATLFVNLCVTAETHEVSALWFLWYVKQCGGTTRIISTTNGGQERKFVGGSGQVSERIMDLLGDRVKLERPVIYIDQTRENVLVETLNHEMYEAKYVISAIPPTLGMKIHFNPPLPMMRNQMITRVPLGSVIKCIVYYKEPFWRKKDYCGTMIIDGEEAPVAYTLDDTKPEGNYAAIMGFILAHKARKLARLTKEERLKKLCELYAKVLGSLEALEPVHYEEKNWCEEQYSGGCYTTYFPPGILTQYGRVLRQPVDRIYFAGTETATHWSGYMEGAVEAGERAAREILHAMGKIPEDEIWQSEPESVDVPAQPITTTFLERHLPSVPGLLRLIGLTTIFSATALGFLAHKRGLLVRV
The experiment is described as follows: Inhibition of human recombinant MAO-B using kynuramine as substrate incubated for 20 mins measuring increase in emission signal at 400 nm multimode plate reader assay.

The species entered for a further experiment is Homo sapiens. The experiment is described as follows: Selectivity index, ratio of IC50 for recombinant human MAO-A to IC50 for recombinant human MAO-B.
Experiment [3] addresses T2, Amine oxidase [flavin-containing] B. Nature of the experiment: Mixed type inhibition of human recombinant MAO-B by Lineweaver-Burk plot analysis.

For the compound `CN(C)c1ccc(/C=C/c2coc3ccccc3c2=O)cc1`, the IC50 in experiment [1] is 42 µM; in experiment [2] it was 48 nM. Besides, the Selectivity Index in the experiment filed under Homo sapiens was found to be 875.
Taken in the same sequence, the figures for `COc1ccc2occ(/C=C/c3ccc(OC)c(OC)c3)c(=O)c2c1` were 61 µM, 800 nM and 76.
Taken in the same sequence, the figures for `COc1cc(/C=C/c2coc3ccccc3c2=O)cc(OC)c1OC` were 67 µM, 230 nM and 291.
Taken in the same sequence, the figures for `COc1ccc2occ(/C=C/c3cc(OC)c(OC)c(OC)c3)c(=O)c2c1` were greater than 100 µM, 2500 nM and greater than 40.
As to `COc1ccc2c(=O)c(/C=C/c3ccc(O)cc3)coc2c1`, the IC50 in experiment [1] was found to be 0.022 µM; in experiment [2] it was 47 nM.
For the compound `O=c1c(/C=C/c2ccc(O)cc2)coc2ccccc12`, the IC50 stood at 2.6 µM in experiment [1] and 37 nM in experiment [2]. For the same compound, in the experiment filed under Homo sapiens, the Selectivity Index was 70.
Taken in the same sequence, the figures for `COc1ccc2occ(/C=C/c3ccc(F)cc3)c(=O)c2c1` were 0.38 µM, 34 nM and 11.
The matching figures for `COc1ccc2occ(/C=C/c3ccccc3)c(=O)c2c1`: 2.5 µM, 75 nM and 33.
Take `COc1ccc(/C=C/c2coc3ccccc3c2=O)cc1`: the IC50 in experiment [1] was greater than 100 µM; in experiment [2], 29 nM. Moreover, in the experiment listed under Homo sapiens, the Selectivity Index is greater than 3400.
Regarding `COc1ccc2c(=O)c(/C=C/c3ccc(OC)c(OC)c3)coc2c1`, the IC50 stood at 19 µM in experiment [1] and 33 nM in experiment [2]. Further, the Selectivity Index in the experiment listed under Homo sapiens is 576.
Taken in the same sequence, the figures for `COc1ccc2c(=O)c(/C=C/c3ccccc3)coc2c1` were 0.12 µM, 16 nM and 8.
The matching figures for `COc1ccc2c(=O)c(/C=C/c3ccc(N(C)C)cc3)coc2c1`: 0.49 µM, 6.1 nM and 80.
In the case of `COc1ccc2occ(/C=C/c3ccc(O)cc3)c(=O)c2c1`, the IC50 amounted to 8.7 µM in experiment [1] and 330 nM in experiment [2].
For `O=c1c(/C=C/c2ccc(Cl)cc2)coc2ccccc12`, the IC50 in experiment [1] was determined as 0.39 µM; in experiment [2] it was 5.9 nM. In addition, in the experiment filed under Homo sapiens, the Selectivity Index is 66.
For the compound `COc1ccc2c(=O)c(/C=C/c3cc(OC)c(OC)c(OC)c3)coc2c1`, the half-inhibitory concentration (IC50) in experiment [1] was found to be 7.3 µM; in experiment [2] it was 21 nM. In the experiment filed under Homo sapiens, the Selectivity Index was found to be 348.
Taken in the same sequence, the figures for `COc1ccc(/C=C/c2coc3ccccc3c2=O)cc1OC` were 33 µM, 160 nM and 206.
Consider `O=c1c(/C=C/c2ccccc2)coc2ccccc12`, for which the Ki in experiment [3] is 18 nM. For the same compound, the IC50 is greater than 100 µM in experiment [1] and 27 nM in experiment [2]. Further, in the experiment listed under Homo sapiens, the Selectivity Index was greater than 3700.
Consider `COc1ccc2occ(/C=C/c3ccc(N(C)C)cc3)c(=O)c2c1`, for which the figures for the IC50 in experiment [1] and in experiment [2] were 59 µM and 230 nM, respectively. Besides, in the experiment listed under Homo sapiens, the Selectivity Index is 257.
The matching figures for `COc1ccc2occ(/C=C/c3ccc(Cl)cc3)c(=O)c2c1`: 4.1 µM, 28 nM and 146.
Consider `COc1ccc2c(=O)c(/C=C/c3ccc(Cl)cc3)coc2c1`, for which the Ki in experiment [3] turned out to be 1.5 nM. The IC50 in experiment [1] is 0.025 µM; in experiment [2] it was 2.2 nM. In addition, the Selectivity Index in the experiment listed under Homo sapiens came out at 11.
With `COc1ccc(/C=C/c2coc3ccc(OC)cc3c2=O)cc1`, the IC50 in experiment [1] was found to be 35 µM; in experiment [2], 150 nM. Also, the Selectivity Index in the experiment filed under Homo sapiens came to 233.
For the compound `COc1ccc2c(=O)c(/C=C/c3ccc(F)cc3)coc2c1`, the values for the IC50 in experiment [1] and in experiment [2] were 0.014 µM and 3.1 nM, respectively.
`O=c1c(/C=C/c2ccc(F)cc2)coc2ccccc12`: the IC50 in experiment [1] was determined as 0.62 µM; in experiment [2] it was 8.6 nM. The Selectivity Index in the experiment filed under Homo sapiens is 72.
The matching figures for `COc1ccc(/C=C/c2coc3cc(OC)ccc3c2=O)cc1`: 0.069 µM, 6.8 nM and 10.
